{
  "source": "patent US6537803B1",
  "about": "“Amino acid transporters and uses” (Oregon Health Sciences University, priority 1993, dated 2003)",
  "type_in_all_cases": "cell-based",
  "key": {"human EAAT1": {"target": "T1, human EAAT1 (Homo sapiens, UniProt P43003)", "T1 construct": "expressed in transfected cells; host or cells: COS-7 cells, pCMV5 construct, DEAE-dextran transient transfection", "T1 sequence (P43003 whole entry, the tested form may be a part)": "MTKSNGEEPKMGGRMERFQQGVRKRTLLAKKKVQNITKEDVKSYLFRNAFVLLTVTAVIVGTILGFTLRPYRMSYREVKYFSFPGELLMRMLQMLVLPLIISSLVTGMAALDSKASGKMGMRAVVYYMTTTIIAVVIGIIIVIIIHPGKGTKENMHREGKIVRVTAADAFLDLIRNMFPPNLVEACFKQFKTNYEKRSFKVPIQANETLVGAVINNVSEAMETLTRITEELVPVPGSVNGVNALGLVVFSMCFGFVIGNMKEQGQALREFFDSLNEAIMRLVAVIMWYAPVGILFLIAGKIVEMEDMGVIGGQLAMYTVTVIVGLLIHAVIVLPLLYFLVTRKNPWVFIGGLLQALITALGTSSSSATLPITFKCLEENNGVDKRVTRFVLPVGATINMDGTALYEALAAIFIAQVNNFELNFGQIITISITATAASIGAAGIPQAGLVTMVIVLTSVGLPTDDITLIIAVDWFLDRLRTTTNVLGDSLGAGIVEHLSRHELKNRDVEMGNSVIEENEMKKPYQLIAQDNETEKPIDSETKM", "assay": "inhibition of [3H]-L-glutamate uptake in COS-7 cells expressing EAAT1", "details": "for Ki: read-out: Ki, glutamate uptake inhibition constant, EAAT1; for inhibition of glutamate uptake (in words), EAAT1: COS cell culture", "excerpt": "(§1) DNA fragments comprising the coding sequences of the novel glutamate transporter genes of the invention were excised from the POTV constructs described in Example 3 and subcloned into the mammalian expression plasmid pCMV5 (Anderson et al., 1989, J. Biol. Chem. 264: 8222-8229). These mammalian expression constructs were used for transient expression assays of glutamate transporter protein function after transfection of each of these constructs into COS-7 cells (Gluzman, 1981, Cell 23: 175-182).\n(§2) Each of the pCMV5 constructs corresponding to EAAT1, EAAT2 and EAAT3 were introduced into COS-7 cells by DEAE-dextran facilitated transfection (see Sambrook et al., ibid.). Two day following transfection, the transfected cells were washed three times in phosphate-buffered saline (PBS) and then incubated with a mixture of radiolabeled amino acid ([^3H]-L-glutamate or [^3H]-D-aspartate; Dupont-NEN) and non-radiolabeled amino acid for 10 min. After incubation, the cells were washed three times with ice-cold PBS, solubilized with a solution of 0.1% sodium dodecyl sulfate (SDS) and the amount of radioactivity associated with the cells determined using standard liquid scintillation counting methods.\n(§3) COS-7 cell cultures transformed with pCMVS-human glutamate transporter constructs as described in Example 4 were used to characterize the pharmacological properties of each of these transporter proteins relative to a variety of known glutamate transporter inhibitors. These assays were performed essentially as described in Example 4, with the exception that varying amounts of each of a number of known inhibitor compounds were included in the incubations.\n(§4) In these experiments, uptake of 1 μM of […] was determined in the presence of the indicated amounts of each of the inhibitors."}, "human EAAT2": {"target": "T2, human EAAT2 (Homo sapiens, UniProt P43004)", "T2 construct": "expressed in transfected cells; host or cells: COS-7 cells, pCMV5 construct, DEAE-dextran transient transfection", "T2 sequence (P43004 whole entry)": "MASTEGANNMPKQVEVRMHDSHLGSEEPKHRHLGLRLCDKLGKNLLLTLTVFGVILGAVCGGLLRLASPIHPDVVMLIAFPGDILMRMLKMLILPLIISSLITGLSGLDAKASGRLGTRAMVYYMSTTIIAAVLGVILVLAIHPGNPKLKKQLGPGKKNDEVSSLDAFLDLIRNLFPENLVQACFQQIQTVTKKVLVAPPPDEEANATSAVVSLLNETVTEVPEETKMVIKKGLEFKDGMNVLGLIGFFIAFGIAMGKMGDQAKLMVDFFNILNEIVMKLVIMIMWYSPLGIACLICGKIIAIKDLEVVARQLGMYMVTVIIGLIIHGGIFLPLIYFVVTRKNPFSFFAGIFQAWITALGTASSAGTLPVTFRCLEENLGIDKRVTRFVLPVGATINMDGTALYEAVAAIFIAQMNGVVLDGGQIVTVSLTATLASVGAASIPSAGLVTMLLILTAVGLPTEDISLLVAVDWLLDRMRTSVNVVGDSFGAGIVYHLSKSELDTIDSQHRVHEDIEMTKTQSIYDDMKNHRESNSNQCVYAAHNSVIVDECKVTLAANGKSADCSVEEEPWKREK", "assay": "inhibition of [3H]-L-glutamate uptake in COS-7 cells expressing EAAT2", "details": "for Ki: read-out: Ki, glutamate uptake inhibition constant, EAAT2; for inhibition of glutamate uptake (in words), EAAT2: COS cell culture", "excerpt": "as §1, §2, §3, §4"}, "human EAAT3": {"target": "T3, human EAAT3 (Homo sapiens, UniProt P43005)", "T3 construct": "isolation of Clone GT11B containing a full-length open reading frame encoding EAAT3; expressed in transfected cells; host or cells: COS-7 cells, pCMV5 construct, DEAE-dextran transient transfection", "T3 sequence (P43005 1-524)": "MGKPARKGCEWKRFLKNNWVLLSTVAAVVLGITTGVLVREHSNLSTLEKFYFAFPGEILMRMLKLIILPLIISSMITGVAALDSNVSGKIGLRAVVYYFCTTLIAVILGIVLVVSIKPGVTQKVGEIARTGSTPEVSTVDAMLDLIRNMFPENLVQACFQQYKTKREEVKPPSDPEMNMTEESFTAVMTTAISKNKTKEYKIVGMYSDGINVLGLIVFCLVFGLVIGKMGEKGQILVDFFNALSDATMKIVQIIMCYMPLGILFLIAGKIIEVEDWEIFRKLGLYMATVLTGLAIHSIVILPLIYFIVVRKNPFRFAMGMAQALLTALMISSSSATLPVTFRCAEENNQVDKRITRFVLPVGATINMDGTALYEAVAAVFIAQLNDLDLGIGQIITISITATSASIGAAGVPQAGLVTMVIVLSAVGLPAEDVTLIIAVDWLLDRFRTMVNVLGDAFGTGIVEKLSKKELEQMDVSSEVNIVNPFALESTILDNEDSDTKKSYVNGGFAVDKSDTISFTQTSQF", "assay": "inhibition of [3H]-L-glutamate uptake in COS-7 cells expressing EAAT3", "details": "for Ki: read-out: Ki, glutamate uptake inhibition constant, EAAT3; for inhibition of glutamate uptake (in words), EAAT3: COS cell culture", "excerpt": "as §1, §2, §3, §4"}, "[1]": {"target": "T4, human ASCT1 neutral amino acid transporter (Homo sapiens, UniProt P43007)", "T4 construct": "expressed in transfected cells; host or cells: Xenopus laevis oocytes injected with in vitro transcribed RNA (pOTV vector)", "T4 sequence (P43007 1-532)": "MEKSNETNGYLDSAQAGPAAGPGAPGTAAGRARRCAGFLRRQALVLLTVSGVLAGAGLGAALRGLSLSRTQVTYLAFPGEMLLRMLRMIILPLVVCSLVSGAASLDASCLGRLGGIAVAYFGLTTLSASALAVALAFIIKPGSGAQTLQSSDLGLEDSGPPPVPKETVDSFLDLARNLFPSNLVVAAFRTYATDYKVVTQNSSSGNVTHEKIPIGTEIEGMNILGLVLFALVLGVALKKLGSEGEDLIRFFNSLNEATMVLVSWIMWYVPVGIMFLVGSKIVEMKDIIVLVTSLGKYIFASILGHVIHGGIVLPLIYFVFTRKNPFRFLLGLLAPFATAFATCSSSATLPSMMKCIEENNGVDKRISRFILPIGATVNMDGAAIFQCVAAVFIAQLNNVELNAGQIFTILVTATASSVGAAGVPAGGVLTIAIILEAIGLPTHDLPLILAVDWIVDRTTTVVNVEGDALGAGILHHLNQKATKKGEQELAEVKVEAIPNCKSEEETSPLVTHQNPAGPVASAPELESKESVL", "assay": "amino acid-induced inward current in voltage-clamped ASCT1-injected Xenopus oocytes", "details": "for effect on membrane current of ASCT1-injected oocytes: much higher concentrations (about 1 mM); for Imax (maximal current): L-stereoisomer, current normalized to the maximum response obtained with L-alanine, mean ± standard error", "excerpt": "Following the PCR, the product of the amplification reaction was purified using standard techniques (Saiki et al., 1988, Science 239: 487-491). The DNA then digested with the restriction enzymes KpnI and XbaI and then cloned into the polylinker of an oocyte transcription vector (POTV; see Wang el al., 1991, Nature 352: 729-731) that had been digested with KpnI and XbaI. Synthetic RNA was then transcribed in vitro from this clone using the method of Kavanaugh et al. (1992, J. Biol. Chem. 267: 22007-22009) employing bacteriophage T7 RNA polymerase (New England Biolabs, Beverly, Mass.). 20-50 nL of ASCT1 RNA (at a concentration of about 400 μg/mL) was injected into defolliculated stage V-VI Xenopus oocytes excised from female Xenopus laevis anesthetized by immersion in 3-aminobenzoic acid for 60 min. Excised oocytes were treated with collagenase II (Sigma Chemical Co., St. Louis, Mo.) in calcium-free Barth's saline solution [comprising 88 mM NaCl, 1 mM KCl, 2.4 mM NaHCO3, 0.82 mM MgSO4, 7.5 mM Tris-HCl (pH 7.6), 50 U/mL Nystatin (Sigma) and 0.1 mg/mL gentamycin (Sigma)] for 60 min., and then incubated overnight at 15° C. in 50% Leibowitz's L-15 media (Grand Island Biological Co. (GIBCO), Long Island, N.Y.). After overnight incubation the oocytes were mechanically defolliculated and then were injected with ASCT-1 RNA and incubated at 19° C. for 48 h (see Kim el al., 1991, Nature 352: 725-728 for further details of Xenopus oocyte preparation and microinjection).\nAmino acid transport in such oocytes was assayed using [^3H] alanine, [^3H] serine or [^35S] cysteine (obtained from New England Nuclear, Boston, Mass.). Briefly, microinjected oocytes were […] at −60 mV using a Dagan TEV-200 clamp amplifier with an Axon Instruments (Foster City, Calif.) TL-1 A/D interface controlled by pCLAMP software (Axon Instruments) (see Kavanaugh et al., 1992, J. Biol. Chem. 267: 22007-22009 for a detailed review of this methodology) and continuously superfused with ND-96 buffer (consisting of 96 mM NaCl/2 mM KCl/1.8 mM CaCl2/1 mM MgCl2/5 mM HEPES, pH 7.5). For transport measurements, this solution was changed to a solution containing varying concentrations of the radiolabeled amino acids in ND-96 buffer.\nMore detailed analyses of ithe kinetics of amino acid influx were performed by least squares linear regression analysis of induced inward current ([I]) plotted as a function of substrate amino acid concentration ([S]), using the equation shown in the legend of Table II."}, "[2]": {"details": "uptake of 1 μM [3H]-L-glutamate, [S] << Km, Ki does not differ significantly from measured IC50"}, "[3]": {"details": "uptake of 1 μM [3H]-L-glutamate, bound given in mM"}},
  "note": "Like-named read-outs stand apart in the source and are kept apart here.",
  "data": [
    {"smiles": "NC(CC(=O)O)CC(=O)O", "note": "[β-glutamate]", "values": [
      {"measurement": "Ki", "setting": "human EAAT1; [2]", "value": "0.297 ± 0.118", "unit": "mM"},
      {"measurement": "Ki", "setting": "human EAAT2; [2]", "value": "156 ± 37", "unit": "µM"},
      {"measurement": "Ki", "setting": "human EAAT3; [2]", "value": "0.307 ± 0.048", "unit": "mM"}
    ]},
    {"smiles": "NC(=O)C[C@H](N)C(=O)O", "note": "[asparagine]", "values": [
      {"measurement": "effect on membrane current of ASCT1-injected oocytes", "setting": "[1]", "value": "had no effect"}
    ]},
    {"smiles": "N=C(N)NCCC[C@H](N)C(=O)O", "note": "[arginine]", "values": [
      {"measurement": "effect on membrane current of ASCT1-injected oocytes", "setting": "[1]", "value": "had no effect"}
    ]},
    {"smiles": "CC(C)C[C@H](N)C(=O)O", "note": "[leucine]", "values": [
      {"measurement": "effect on membrane current of ASCT1-injected oocytes", "setting": "[1]", "value": "had no effect"}
    ]},
    {"smiles": "O=C(O)[C@H]1CN[C@H](C(=O)O)C1", "note": "[PDC, L-trans-pyrrolidine-2,4-dicarboxylate]", "values": [
      {"measurement": "Ki", "setting": "human EAAT1", "value": "0.079 ± 0.007", "unit": "mM"},
      {"measurement": "Ki", "setting": "human EAAT2", "value": "8 ± 2", "unit": "µM"},
      {"measurement": "Ki", "setting": "human EAAT3", "value": "0.061 ± 0.014", "unit": "mM"}
    ]},
    {"smiles": "O=C(O)[C@@H]1CCCN1", "note": "[proline]", "values": [
      {"measurement": "effect on membrane current of ASCT1-injected oocytes", "setting": "[1]", "value": "had no effect"}
    ]},
    {"smiles": "NC1(C(=O)O)CC(C(=O)O)C1", "note": "(stereo not drawn) [cis-1-aminocyclobutane-1,3-dicarboxylate]", "values": [
      {"measurement": "inhibition of glutamate uptake (in words), EAAT1", "setting": "human EAAT1", "value": "ineffective"},
      {"measurement": "inhibition of glutamate uptake (in words), EAAT2", "setting": "human EAAT2", "value": "ineffective"},
      {"measurement": "inhibition of glutamate uptake (in words), EAAT3", "setting": "human EAAT3", "value": "ineffective"}
    ]},
    {"smiles": "N[C@@H](Cn1oc(=O)[nH]c1=O)C(=O)O", "note": "[quisqualate]", "values": [
      {"measurement": "inhibition of glutamate uptake (in words), EAAT1", "setting": "human EAAT1", "value": "ineffective"},
      {"measurement": "inhibition of glutamate uptake (in words), EAAT2", "setting": "human EAAT2", "value": "ineffective"},
      {"measurement": "inhibition of glutamate uptake (in words), EAAT3", "setting": "human EAAT3", "value": "ineffective"}
    ]},
    {"smiles": "C[C@@H](O)[C@H](N)C(=O)O", "note": "[Threonine]", "values": [
      {"measurement": "Imax (maximal current)", "setting": "[1]", "value": "1.4 ± 0.03"}
    ]},
    {"smiles": "CC(C)[C@H](N)C(=O)O", "note": "[Valine]", "values": [
      {"measurement": "Imax (maximal current)", "setting": "[1]", "value": "0.6 ± 0.11"}
    ]},
    {"smiles": "CN[C@@H](C)C(=O)O", "note": "[N-methylalanine]", "values": [
      {"measurement": "effect on membrane current of ASCT1-injected oocytes", "setting": "[1]", "value": "had no effect"}
    ]},
    {"smiles": "C=C(C)[C@H]1CN[C@H](C(=O)O)[C@H]1CC(=O)O", "note": "[KAI, kainate]", "values": [
      {"measurement": "Ki", "setting": "human EAAT1; [3]", "value": "> 1", "unit": "mM"},
      {"measurement": "Ki", "setting": "human EAAT2; [2]", "value": "59 ± 18", "unit": "µM"},
      {"measurement": "Ki", "setting": "human EAAT3; [3]", "value": "> 1", "unit": "mM"}
    ]},
    {"smiles": "CSCC[C@H](N)C(=O)O", "note": "[methionine]", "values": [
      {"measurement": "effect on membrane current of ASCT1-injected oocytes", "setting": "[1]", "value": "had no effect"}
    ]},
    {"smiles": "N[C@H](C(=O)O)[C@H](O)C(=O)O", "note": "[THA, L-threo-β-hydroxyaspartate]", "values": [
      {"measurement": "Ki", "setting": "human EAAT1", "value": "0.032 ± 0.008", "unit": "mM"},
      {"measurement": "Ki", "setting": "human EAAT2", "value": "19 ± 6", "unit": "µM"},
      {"measurement": "Ki", "setting": "human EAAT3", "value": "0.025 ± 0.005", "unit": "mM"}
    ]}
  ]
}
